Earlier results as cited in patent US12502339B2, “Foam compositions” (The Procter & Gamble Company, priority 2021, dated 2025).

Settings: in water

Row | SMILES | Water solubility at 20° C. (weight percent)
1 | CCCC [Butane] | <0.01% weight percent
2 | O=C=O [Carbon dioxide] | 0.8% weight percent
3 | COC [Dimethyl ether] | 7% weight percent
4 | [He] [Helium] | <0.01 weight percent

More lines, now with the values ahead:

Row | Water solubility at 20° C. (weight percent) | SMILES
5 | <0.01% weight percent | CC(C)C [Isobutane]
6 | 0.12 weight percent | [N-]=[N+]=O [Nitrous oxide]
